Patent publication US20130029962A1, “Substituted Heteroaromatic Pyrazole-Containing Carboxamide and Urea Compounds as Vanilloid Receptor Ligands” (Gruenenthal GmbH, priority 2011, published 2013)

Each molecule was assayed against T1, vanilloid receptor 1 (VR1/TRPV1 receptor) (Homo sapiens, UniProt Q8NER1) (assay: Functional testing on the vanilloid receptor 1 (VR1/TRPV1): FLIPR Ca2+ influx assay, displacement of capsaicin). Conditions: 1 μM compound; capsaicin (Cap); human being; read-out: inhibition (as a percentage) at the concentration after @, Cap.
T1 construct: expressed in transfected cells; host or cells: CHO K1
T1 sequence (Q8NER1 whole entry): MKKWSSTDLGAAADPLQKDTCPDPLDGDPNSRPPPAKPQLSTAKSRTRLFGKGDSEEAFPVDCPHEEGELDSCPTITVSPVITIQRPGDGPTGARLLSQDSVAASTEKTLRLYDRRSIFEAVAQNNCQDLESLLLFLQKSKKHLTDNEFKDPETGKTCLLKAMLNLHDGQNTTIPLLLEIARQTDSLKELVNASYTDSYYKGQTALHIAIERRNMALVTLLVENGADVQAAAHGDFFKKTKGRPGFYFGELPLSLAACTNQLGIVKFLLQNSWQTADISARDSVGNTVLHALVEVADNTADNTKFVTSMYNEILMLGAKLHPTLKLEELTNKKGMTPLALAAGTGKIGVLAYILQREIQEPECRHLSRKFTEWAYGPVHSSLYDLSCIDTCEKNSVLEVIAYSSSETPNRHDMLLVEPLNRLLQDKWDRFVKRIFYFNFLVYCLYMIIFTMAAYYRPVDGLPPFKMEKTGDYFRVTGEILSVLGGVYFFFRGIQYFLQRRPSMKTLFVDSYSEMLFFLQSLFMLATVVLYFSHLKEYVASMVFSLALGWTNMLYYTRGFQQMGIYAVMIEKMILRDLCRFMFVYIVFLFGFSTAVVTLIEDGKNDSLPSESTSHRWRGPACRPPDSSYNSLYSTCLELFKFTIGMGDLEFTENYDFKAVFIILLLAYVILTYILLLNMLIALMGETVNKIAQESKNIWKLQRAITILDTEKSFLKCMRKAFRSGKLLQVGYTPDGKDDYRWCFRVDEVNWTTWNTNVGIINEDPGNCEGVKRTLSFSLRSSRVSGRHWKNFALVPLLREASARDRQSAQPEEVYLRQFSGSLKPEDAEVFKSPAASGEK
Type: cell-based, human being
In short: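 Fluo-4 FLIPR Ca2+ influx in CHO K1 cells transfected with human VR1, measuring displacement of 100 nM capsaicin; rat VR1 agonism/antagonism also assessed in rat dorsal root ganglion neurons cultured 2–3 days at 37° C with 25 ng/mL NGF, then loaded with 2 μM Fluo-4.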

SMILES	inhibition at 1 µM [%]
CC(C)(C)c1cc(CNC(=O)Nc2ccc(CS(C)(=O)=O)nc2)n(-c2cccc(Cl)c2)n1 [Example 159, 1-((3-tert-butyl-1-(3-chlorophenyl)-1H-pyrazol-5-yl)methyl)-3-(6-(methylsulfonylmethyl)pyridin-3-yl)urea]	29

Same assay, conditions: capsaicin (Cap) as stimulus; Ki from IC50 by Cheng-Prusoff; read-out: (f) Ki (human being) [nM] Cap

SMILES	Ki [nM]
COc1cccc(-n2nc(C(C)(C)C)cc2CNC(=O)Nc2ccc(CCO)nc2)c1 [Example 153, 1-((3-tert-butyl-1-(3-methoxyphenyl)-1H-pyrazol-5-yl)methyl)-3-(6-(2-hydroxyethyl)pyridin-3-yl)urea]	50
CC(C)(C)c1cc(CNC(=O)Nc2ccc(NCCO)nc2)n(-c2cccc(F)c2)n1 [Example 154, 1-((3-tert-butyl-1-(3-fluorophenyl)-1H-pyrazol-5-yl)methyl)-3-(6-(2-hydroxyethylamino)pyridin-3-yl)urea]	38
O=C(NCc1cc(C(F)(F)F)nn1-c1cc(F)cc(F)c1)Nc1ccc(NCCO)nc1 [Example 155, 1-((1-(3,5-difluorophenyl)-3-(trifluoromethyl)-1H-pyrazol-5-yl)methyl)-3-(6-(2-hydroxyethylamino)pyridin-3-yl)urea]	35
Cc1cc(-n2nc(C(F)(F)F)cc2CNC(=O)Nc2ccc(NCCO)nc2)ccc1Cl [Example 156, 1-((1-(4-chloro-3-methylphenyl)-3-(trifluoromethyl)-1H-pyrazol-5-yl)methyl)-3-(6-(2-hydroxyethylamino)pyridin-3-yl)urea]	29
COc1ccc(-n2nc(C(F)(F)F)cc2CNC(=O)Nc2ccc(NCCO)nc2)cc1C [Example 157, 1-(6-(2-hydroxyethylamino)pyridin-3-yl)-3-((1-(4-methoxy-3-methylphenyl)-3-(trifluoromethyl)-1H-pyrazol-5-yl)methyl)urea]	112
Cc1cc(-n2nc(C(F)(F)F)cc2CNC(=O)Nc2ccc(NCCO)nc2)ccc1F [Example 158, 1-((1-(4-fluoro-3-methylphenyl)-3-(trifluoromethyl)-1H-pyrazol-5-yl)methyl)-3-(6-(2-hydroxyethylamino)pyridin-3-yl)urea]	77
CC(C)(C)c1cc(CNC(=O)Nc2ccc(CO)nc2)n(-c2cccc(F)c2)n1 [Example 160, 1-((3-tert-butyl-1-(3-fluorophenyl)-1H-pyrazol-5-yl)methyl)-3-(6-(hydroxymethyl)pyridin-3-yl)urea]	75
